One test deals with T1, ER-α in MCF-7 cells (Homo sapiens, UniProt P03372).
T1 construct: endogenous in cells; host or cells: MCF-7
T1 sequence (P03372 1-595): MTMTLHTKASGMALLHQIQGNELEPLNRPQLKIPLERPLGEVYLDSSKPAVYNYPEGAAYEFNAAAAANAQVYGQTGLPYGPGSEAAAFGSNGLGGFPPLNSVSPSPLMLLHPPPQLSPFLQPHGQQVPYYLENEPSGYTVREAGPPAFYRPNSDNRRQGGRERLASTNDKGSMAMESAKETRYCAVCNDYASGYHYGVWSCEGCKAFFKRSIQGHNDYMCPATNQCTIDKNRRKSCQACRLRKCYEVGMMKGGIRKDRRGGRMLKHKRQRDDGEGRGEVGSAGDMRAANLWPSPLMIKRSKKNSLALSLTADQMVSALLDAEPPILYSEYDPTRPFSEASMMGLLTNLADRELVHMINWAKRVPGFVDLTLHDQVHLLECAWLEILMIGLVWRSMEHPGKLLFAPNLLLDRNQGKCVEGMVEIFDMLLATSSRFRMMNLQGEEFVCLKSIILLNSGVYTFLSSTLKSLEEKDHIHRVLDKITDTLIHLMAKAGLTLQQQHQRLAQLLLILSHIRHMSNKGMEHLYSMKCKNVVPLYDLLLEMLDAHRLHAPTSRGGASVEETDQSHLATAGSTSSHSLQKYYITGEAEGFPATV
Put plainly: Breast Cancer Cell ER-α In Cell Western Assay (SP1). Particulars: 4 or 24 hr post compound addition; for Emax: MCF7, SP1 antibody, read-out: ER-α In Cell Western Assay (SP1) Max Response; for DC50: SP1 antibody, read-out: ER-α In Cell Western Assay (SP1) IC50. The class given is cell-based. In short, it runs like this:
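ER-α levels quantified by in-cell western: SP1 signal normalised to DRAQ5 DNA stain, relative to untreated cells (% ER). Compounds at 0.3–0.000003 μM final, 11-point semilog series, 4 or 24 h exposure of MCF-7 cells grown in charcoal-stripped serum.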

The next test concerns MCF-7 cells. Nature of the test: Breast Cancer Cell Viability Assays (MCF-7, CellTiter-Glo). The class given is cell-based. Particulars: 5 days' compound exposure; for IC50: Homo sapiens, MCF7, 120 h. In short, it runs like this:
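Percent viability, background-subtracted against untreated wells, was taken from CellTiter-Glo luminescence after 5 days' exposure of MCF-7 cells. Compounds were tested at eleven semilog concentrations, final 0.3–0.000003 μM, in RPMI containing 10% FBS.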
For orientation: Cellular ATP, detected with luciferase, serves as a proxy for viable cell number.

Usually IC50 stands for the point on the concentration scale where inhibition reaches its midpoint. Higher therefore signals lower potency.

SMILES strings stand for the structures. A value given as a limit tells only on which side of the number the result lay.

As for `Fc1ccc(/C(=C(\c2ccc(/C=C/c3nnn[nH]3)cc2)c2ccc3scnc3c2)C2CCC2)c(Cl)c1` [Example 175, 5-((E)-1-(4-((E)-2-(2H-Tetrazol-5-yl)vinyl)phenyl)-2-(2-chloro-4-fluorophenyl)-2-cyclobutylvinyl)benzo[d]thiazole], at ER-α in MCF-7 cells, the Emax is at least 40% and the DC50 was at most 100 nM. Also, in the test on MCF-7 cells, the “MCF7 Viability Assay Max Response” value is “++ (++ = a single % value ≧ 40%)” and the half-maximal inhibitory concentration (IC50) was at most 100 nM.
Regarding `Clc1cnccc1/C(=C(\c1ccc(/C=C/c2nnn[nH]2)cc1)c1ccc2scnc2c1)C1CCC1` [Example 176, 5-((E)-1-(4-((E)-2-(2H-Tetrazol-5-yl)vinyl)phenyl)-2-(3-chloropyridin-4-yl)-2-cyclobutylvinyl)benzo[d]thiazole], at ER-α in MCF-7 cells, the Emax was at least 40% and the DC50 was at most 100 nM. In addition, in the test on MCF-7 cells, the “MCF7 Viability Assay Max Response” value is listed as “++ (++ = a single % value ≧ 40%)” and the concentration for half-maximal inhibition (IC50) was at most 100 nM.
With `Cc1cnccc1/C(=C(\c1ccc(/C=C/c2nnn[nH]2)cc1)c1ccc2scnc2c1)C1CCC1` [Example 177, 5-((E)-1-(4-((E)-2-(2H-Tetrazol-5-yl)vinyl)phenyl)-2-cyclobutyl-2-(3-methylpyridin-4-yl)vinyl)benzo[d]thiazole], at ER-α in MCF-7 cells, the Emax was at least 40% and the DC50 is at most 100 nM. In the test on MCF-7 cells, the “MCF7 Viability Assay Max Response” value is given as “++ (++ = a single % value ≧ 40%)” and the half-inhibitory concentration (IC50) is at most 100 nM.
Take `Fc1ccc(/C(=C(\c2ccc(/C=C/c3nnn[nH]3)cc2)c2ccc3nccn3c2)C2CCC2)c(Cl)c1` [Example 178, 6-((E)-1-(4-((E)-2-(2H-Tetrazol-5-yl)vinyl)phenyl)-2-(2-chloro-4-fluorophenyl)-2-cyclobutylvinyl)imidazo[1,2-a]pyridine]: at ER-α in MCF-7 cells, the Emax was at least 40% and the DC50 was at most 100 nM. Further, in the test with MCF-7 cells, the “MCF7 Viability Assay Max Response” value was “++ (++ = a single % value ≧ 40%)” and the IC50 is at most 100 nM.
For `CC/C(=C(/c1ccc(/C=C/C(=O)NCCO)cc1)c1ccc2[nH]ncc2c1)c1ccc(F)cc1Cl` [Example 179, (E)-3-(4-((E)-2-(2-Chloro-4-fluorophenyl)-1-(1H-indazol-5-yl)but-1-en-1-yl)phenyl)-N-(2-hydroxyethyl)acrylamide], at ER-α in MCF-7 cells, the Emax was at least 40% and the DC50 was at most 100 nM. For the same compound, in the test on MCF-7 cells, the “MCF7 Viability Assay Max Response” value is listed as “++ (++ = a single % value ≧ 40%)” and the half-inhibitory concentration (IC50) was at most 100 nM.
As to `Cc1cscc1/C(=C(\c1ccc(/C=C/C(=O)NCCO)cc1)c1ccc2scnc2c1)C1CCC1` [Example 180, (E)-3-(4-((E)-1-(Benzo[d]thiazol-5-yl)-2-cyclobutyl-2-(4-methylthiophen-3-yl)vinyl)phenyl)-N-(2-hydroxyethyl)acrylamide], at ER-α in MCF-7 cells, the Emax is at least 40% and the DC50 is at most 100 nM. In the test with MCF-7 cells, the “MCF7 Viability Assay Max Response” value is recorded as “++ (++ = a single % value ≧ 40%)” and the half-maximal inhibitory concentration (IC50) was at most 100 nM.
In the case of `Cc1cscc1/C(=C(\c1ccc(/C=C/C(=O)NCCO)cc1)c1ccc2[nH]nc(F)c2c1)C1CCC1` [Example 181, (E)-3-(4-((E)-2-Cyclobutyl-1-(3-fluoro-1H-indazol-5-yl)-2-(4-methylthiophen-3-yl)vinyl)phenyl)-N-(2-hydroxyethyl)acrylamide], at ER-α in MCF-7 cells, the Emax was at least 40% and the DC50 is at most 100 nM. Further, in the test with MCF-7 cells, the “MCF7 Viability Assay Max Response” value is on record as “++ (++ = a single % value ≧ 40%)” and the IC50 is at most 100 nM.
With `O=C(/C=C/c1ccc(/C(=C(\c2ccccc2)C2CCC2)c2ccc3[nH]nnc3c2)cc1)NCCO` [Example 182, (E)-3-(4-((E)-1-(1H-Benzo[d][1,2,3]triazol-5-yl)-2-cyclobutyl-2-phenylvinyl)phenyl)-N-(2-hydroxyethyl)acrylamide], on ER-α in MCF-7 cells, the Emax was at least 40% and the DC50 is at most 100 nM. In the test with MCF-7 cells, the “MCF7 Viability Assay Max Response” value is “++ (++ = a single % value ≧ 40%)” and the IC50 was at most 100 nM.
As for `O=C(/C=C/c1ccc(/C(=C(\c2ccccc2)C2CCC2)c2cccc3[nH]ncc23)cc1)NCCO` [Example 183, (E)-3-(4-((E)-2-Cyclobutyl-1-(1H-indazol-4-yl)-2-phenylvinyl)phenyl)-N-(2-hydroxyethyl)acrylamide], on ER-α in MCF-7 cells, the Emax is at least 40% and the DC50 was at most 100 nM. In the test on MCF-7 cells, the “MCF7 Viability Assay Max Response” value is “++ (++ = a single % value ≧ 40%)” and the IC50 was at most 100 nM.
For the compound `CC/C(=C(/c1ccc(/C=C/C(=O)NC)cc1)c1ccc2scnc2c1)c1ccc(F)cc1Cl` [Example 184, (E)-3-(4-((E)-1-(Benzo[d]thiazol-5-yl)-2-(2-chloro-4-fluorophenyl)but-1-en-1-yl)phenyl)-N-methylacrylamid], on ER-α in MCF-7 cells, the Emax was at least 40% and the DC50 was at most 100 nM. Moreover, in the test with MCF-7 cells, the “MCF7 Viability Assay Max Response” value is given as “++ (++ = a single % value ≧ 40%)” and the half-maximal inhibitory concentration (IC50) was at most 100 nM.
Take `CC/C(=C(/c1ccc(/C=C/C(=O)Nc2nccs2)cc1)c1ccc2[nH]ncc2c1)c1ccc(F)cc1Cl` [Example 185, (E)-3-(4-((E)-2-(2-Chloro-4-fluorophenyl)-1-(1H-indazol-5-yl)but-1-en-1-yl)phenyl)-N-(thiazol-2-yl)acrylamide]: on ER-α in MCF-7 cells, the Emax was at least 40% and the DC50 was at most 100 nM. In the test with MCF-7 cells, the “MCF7 Viability Assay Max Response” value is “++ (++ = a single % value ≧ 40%)” and the 50% inhibitory concentration (IC50) is at most 100 nM.
For `O=C(/C=C/c1ccc(/C(=C(\c2ccc(F)cc2Cl)C2CCC2)c2ccc3[nH]nc(F)c3c2)cc1)Nc1nccs1` [Example 186, (E)-3-(4-((E)-2-(2-Chloro-4-fluorophenyl)-2-cyclobutyl-1-(3-fluoro-1H-indazol-5-yl)vinyl)phenyl)-N-(thiazol-2-yl)acrylamide], at ER-α in MCF-7 cells, the Emax was at least 40% and the DC50 is at most 100 nM. In addition, in the test with MCF-7 cells, the “MCF7 Viability Assay Max Response” value is given as “++ (++ = a single % value ≧ 40%)” and the IC50 is at most 100 nM.
Turning to `O=C(/C=C/c1ccc(/C(=C(\c2ccc(F)cc2Cl)C2CCC2)c2ccc3nccn3c2)cc1)NCCO` [Example 187, (E)-3-(4-((E)-2-(2-Chloro-4-fluorophenyl)-2-cyclobutyl-1-(imidazo[1,2-a]pyridin-6-yl)vinyl)phenyl)-N-(2-hydroxyethyl)acrylamide], on ER-α in MCF-7 cells, the Emax was at least 40% and the DC50 is at most 100 nM. Further, in the test on MCF-7 cells, the “MCF7 Viability Assay Max Response” value is listed as “++ (++ = a single % value ≧ 40%)” and the 50% inhibitory concentration (IC50) was at most 100 nM.
As to `O=C(/C=C/c1ccc(/C(=C(\c2ccccc2)C2CCC2)c2ccc3[nH]nc(F)c3c2)cc1)NCC(O)CO` (stereo not drawn) [Example 188, (E)-3-(4-((E)-2-Cyclobutyl-1-(3-fluoro-1H-indazol-5-yl)-2-phenylvinyl)phenyl)-N-(2,3-dihydroxypropyl)acrylamide], at ER-α in MCF-7 cells, the Emax is at least 40% and the DC50 was at most 100 nM. Moreover, in the test on MCF-7 cells, the “MCF7 Viability Assay Max Response” value is reported as “++ (++ = a single % value ≧ 40%)” and the IC50 was at most 100 nM.
As to `O=C(/C=C/c1ccc(/C(=C(\c2ccccc2)C2CCC2)c2ccc3[nH]nc(F)c3c2)cc1)NC(CO)CO` [Example 189, (E)-3-(4-((E)-2-Cyclobutyl-1-(3-fluoro-1H-indazol-5-yl)-2-phenylvinyl)phenyl)-N-(1,3-dihydroxypropan-2-yl)acrylamide], on ER-α in MCF-7 cells, the Emax is at least 40% and the DC50 was at most 100 nM. Also, in the test with MCF-7 cells, the “MCF7 Viability Assay Max Response” value is “++ (++ = a single % value ≧ 40%)” and the IC50 was at most 100 nM.
In the case of `CNC(=O)/C=C/c1ccc(/C(=C(\c2ccccc2)C2CCC2)c2ccc3[nH]nc(F)c3c2)cc1` [Example 190, (E)-3-(4-((E)-2-Cyclobutyl-1-(3-fluoro-1H-indazol-5-yl)-2-phenylvinyl)phenyl)-N-methylacrylamide], on ER-α in MCF-7 cells, the Emax is at least 40% and the DC50 was at most 100 nM. Further, in the test on MCF-7 cells, the “MCF7 Viability Assay Max Response” value is recorded as “++ (++ = a single % value ≧ 40%)” and the half-inhibitory concentration (IC50) is at most 100 nM.
On to `O=C(/C=C/c1ccc(/C(=C(\c2ccccc2)C2CCC2)c2ccc3[nH]nc(F)c3c2)cc1)NCCCl` [Example 191, (E)-N-(2-Chloroethyl)-3-(4-((E)-2-cyclobutyl-1-(3-fluoro-1H-indazol-5-yl)-2-phenylvinyl)phenyl)acrylamide], for which, at ER-α in MCF-7 cells, the Emax is at least 40% and the DC50 was at most 100 nM. In addition, in the test with MCF-7 cells, the “MCF7 Viability Assay Max Response” value is given as “++ (++ = a single % value ≧ 40%)” and the IC50 was at most 100 nM.
On to `OCC1CN=C(/C=C/c2ccc(/C(=C(\c3ccccc3)C3CCC3)c3ccc4[nH]nc(F)c4c3)cc2)O1` (stereo not drawn) [Example 192, (2-((E)-4-((E)-2-Cyclobutyl-1-(3-fluoro-1H-indazol-5-yl)-2-phenylvinyl)styryl)-4,5-dihydrooxazol-5-yl)methanol], for which, on ER-α in MCF-7 cells, the Emax is at least 40% and the DC50 was at most 100 nM. In the test on MCF-7 cells, the “MCF7 Viability Assay Max Response” value is on record as “++ (++ = a single % value ≧ 40%)” and the IC50 is at most 100 nM.

Source of the values: US9499538B2, “Estrogen receptor modulators and uses thereof” (Seragon Pharmaceuticals, Inc., priority 2012, dated 2016).
